The results in this text go back to ChEMBL document CHEMBL4020735, “Design, synthesis, and evaluation of multitarget-directed ligands against Alzheimer's disease based on the fusion of donepezil and curcumin” (Bioorg Med Chem, 2017).

One data set concerns the target Cholinesterase (Equus caballus, UniProt P81908).
A further data set addresses Acetylcholinesterase (Electrophorus electricus, UniProt O42275).
Data set [1] deals with Amyloid-beta precursor protein (Homo sapiens) (UniProt P05067). In words: Inhibition of self-mediated aggregation of amyloid beta (1 to 42 residues) (unknown origin) at 20 uM after 48 hrs by Thioflavin T fluorescence assay relative to control.
Data set [2] is described as follows: Antioxidant activity assessed as trolox equivalent of APPH-induced radical scavenging activity at 0.117 to 10 uM preincubated for 10 mins followed by AAPH addition measured every minute for 90 mins by ORAC fluorescein assay. It counts as functional.
A short description of data set [3]: Permeability of the compound at […] after 10 hrs by PAMPA. Particulars: read-out: permeability. It is filed as physicochemical. For orientation: The PAMPA barrier holds no transporters, so it reflects passive diffusion.
Data set [4] in a line: Metal chelating activity of compound assessed as compound-Fe2+ complex formation at 20 uM after 30 mins by UV-Vis spectrophotometric analysis. It counts as functional.
Data set [5] deals with Acetylcholinesterase (Electrophorus electricus) (UniProt O42275). Briefly: Mixed type inhibition of electric eel AChE using acetylthiocholine iodide as substrate preincubated for 15 mins followed by substrate addition by Lineweaver-Burk plot analysis.
The nature of data set [6]: Metal chelating activity of compound assessed as compound-Cu2+ complex formation at 20 uM after 30 mins by UV-Vis spectrophotometric analysis. It is filed as functional.
Data set [7] in a line: Metal chelating activity of compound assessed as compound-Zn2+ complex formation at 20 uM after 30 mins by UV-Vis spectrophotometric analysis. It is filed as functional.

Structures are written as SMILES. Calls of active or inactive are those of the source. The rule behind the calls is not given here.

Chain of Cholinesterase (P81908 whole entry): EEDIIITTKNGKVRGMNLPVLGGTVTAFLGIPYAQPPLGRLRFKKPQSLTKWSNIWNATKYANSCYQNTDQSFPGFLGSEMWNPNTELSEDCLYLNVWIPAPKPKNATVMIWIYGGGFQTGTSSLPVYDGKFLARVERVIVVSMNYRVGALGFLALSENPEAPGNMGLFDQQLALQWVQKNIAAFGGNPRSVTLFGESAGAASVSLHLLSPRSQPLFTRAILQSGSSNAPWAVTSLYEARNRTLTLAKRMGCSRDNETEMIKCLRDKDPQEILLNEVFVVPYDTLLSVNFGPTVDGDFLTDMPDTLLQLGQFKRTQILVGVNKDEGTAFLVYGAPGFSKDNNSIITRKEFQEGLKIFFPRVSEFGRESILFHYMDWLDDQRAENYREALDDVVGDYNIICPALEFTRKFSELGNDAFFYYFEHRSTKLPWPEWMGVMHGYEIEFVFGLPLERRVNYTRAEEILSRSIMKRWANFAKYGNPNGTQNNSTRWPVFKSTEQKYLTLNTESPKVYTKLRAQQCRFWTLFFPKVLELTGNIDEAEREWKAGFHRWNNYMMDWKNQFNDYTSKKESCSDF
Chain of Acetylcholinesterase (O42275 whole entry, the tested form may be a part): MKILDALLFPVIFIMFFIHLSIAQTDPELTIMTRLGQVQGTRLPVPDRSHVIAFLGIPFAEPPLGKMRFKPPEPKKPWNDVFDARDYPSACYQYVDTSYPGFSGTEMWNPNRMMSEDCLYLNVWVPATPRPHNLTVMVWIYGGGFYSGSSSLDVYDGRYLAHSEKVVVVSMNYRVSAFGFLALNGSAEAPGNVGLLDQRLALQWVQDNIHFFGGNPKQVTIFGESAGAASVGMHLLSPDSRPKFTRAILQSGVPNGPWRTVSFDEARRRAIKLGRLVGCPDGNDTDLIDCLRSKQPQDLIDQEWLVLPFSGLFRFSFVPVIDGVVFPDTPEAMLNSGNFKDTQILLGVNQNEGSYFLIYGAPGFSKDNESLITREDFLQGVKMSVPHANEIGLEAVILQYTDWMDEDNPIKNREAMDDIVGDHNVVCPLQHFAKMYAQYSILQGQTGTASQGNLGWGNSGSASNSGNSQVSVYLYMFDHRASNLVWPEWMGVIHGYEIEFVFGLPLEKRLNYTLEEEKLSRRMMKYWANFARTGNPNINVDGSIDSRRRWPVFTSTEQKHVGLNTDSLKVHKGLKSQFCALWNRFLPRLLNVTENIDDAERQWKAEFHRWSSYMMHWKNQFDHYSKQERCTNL
Chain of Amyloid-beta precursor protein (Homo sapiens) (P05067 whole entry, the tested form may be a part): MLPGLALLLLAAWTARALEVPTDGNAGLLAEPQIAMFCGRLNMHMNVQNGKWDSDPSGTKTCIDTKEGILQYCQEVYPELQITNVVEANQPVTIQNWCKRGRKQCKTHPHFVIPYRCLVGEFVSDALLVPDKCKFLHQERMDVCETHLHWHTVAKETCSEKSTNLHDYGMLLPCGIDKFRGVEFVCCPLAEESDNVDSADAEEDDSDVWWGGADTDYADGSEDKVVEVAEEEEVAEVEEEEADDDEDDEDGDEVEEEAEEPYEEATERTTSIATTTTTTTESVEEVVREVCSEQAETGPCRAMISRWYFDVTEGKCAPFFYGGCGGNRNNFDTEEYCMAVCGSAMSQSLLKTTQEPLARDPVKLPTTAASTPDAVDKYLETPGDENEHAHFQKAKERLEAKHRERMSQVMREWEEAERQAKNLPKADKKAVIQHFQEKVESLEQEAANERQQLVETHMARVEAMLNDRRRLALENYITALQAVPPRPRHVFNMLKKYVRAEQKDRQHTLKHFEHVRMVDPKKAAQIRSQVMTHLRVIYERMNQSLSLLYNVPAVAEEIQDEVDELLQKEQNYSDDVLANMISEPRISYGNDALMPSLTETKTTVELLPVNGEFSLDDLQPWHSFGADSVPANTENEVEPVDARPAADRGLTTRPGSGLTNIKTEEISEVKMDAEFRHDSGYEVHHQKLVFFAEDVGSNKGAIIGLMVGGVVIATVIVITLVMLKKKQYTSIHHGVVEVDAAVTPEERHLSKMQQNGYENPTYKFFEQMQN
Chain of Acetylcholinesterase (Electrophorus electricus) (O42275 24-633 limits assumed): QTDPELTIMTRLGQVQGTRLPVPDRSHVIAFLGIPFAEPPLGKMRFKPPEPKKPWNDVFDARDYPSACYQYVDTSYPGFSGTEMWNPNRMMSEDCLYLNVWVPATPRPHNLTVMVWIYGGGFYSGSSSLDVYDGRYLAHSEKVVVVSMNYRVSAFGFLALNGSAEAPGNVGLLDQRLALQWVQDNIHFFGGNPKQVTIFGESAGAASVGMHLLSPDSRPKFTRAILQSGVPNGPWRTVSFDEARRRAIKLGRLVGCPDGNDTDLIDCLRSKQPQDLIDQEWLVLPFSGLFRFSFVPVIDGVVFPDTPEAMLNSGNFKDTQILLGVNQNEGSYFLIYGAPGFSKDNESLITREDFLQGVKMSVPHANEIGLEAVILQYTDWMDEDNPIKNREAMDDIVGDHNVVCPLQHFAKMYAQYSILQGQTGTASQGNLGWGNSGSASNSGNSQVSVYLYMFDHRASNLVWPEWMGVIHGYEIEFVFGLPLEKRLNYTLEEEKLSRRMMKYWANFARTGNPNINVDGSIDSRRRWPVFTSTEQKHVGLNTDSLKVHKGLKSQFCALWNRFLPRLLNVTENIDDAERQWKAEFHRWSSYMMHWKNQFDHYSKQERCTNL

`COc1cccc(C(=O)C(CC2CCN(Cc3ccccc3)CC2)C(C)=O)c1` (stereo not given): the IC50 (commonly the concentration that inhibits the measured activity by half) turned out to be 14400 nM against Cholinesterase and 1780 nM against Acetylcholinesterase.

Take `COc1ccc(C(=O)C(CCC2CCN(Cc3ccccc3)CC2)C(C)=O)cc1OC` (stereo not given): the values for the concentration for half-maximal inhibition (IC50) against Cholinesterase and against Acetylcholinesterase were 2820 nM and 373 nM, respectively.

Turning to `COc1ccc(C(=O)C(CCC2CCN(Cc3cccc(C)c3)CC2)C(C)=O)cc1OC` (stereo not given), the IC50 was found to be 2000 nM against Cholinesterase and 263 nM against Acetylcholinesterase.

Regarding `COc1cc(C(=O)C(CCC2CCN(Cc3ccccc3)CC2)C(C)=O)ccc1O` (stereo not given), the IC50 amounted to 15600 nM on Cholinesterase and 2050 nM against Acetylcholinesterase.

As for `COc1ccc(C(=O)C(CC2CCN(Cc3ccccc3)CC2)C(C)=O)cc1OC` (stereo not given), the results for the IC50 on Cholinesterase and against Acetylcholinesterase were 20800 nM and 2550 nM, respectively.

Regarding `COc1cccc(C(=O)C(CCC2CCN(Cc3cccc(C)c3)CC2)C(C)=O)c1` (stereo not given), the values for the IC50 against Cholinesterase and against Acetylcholinesterase were 1850 nM and 555 nM, respectively.

On to `COc1ccc(C(=O)CC(=O)CC2CCN(Cc3cccc(C)c3)CC2)cc1O`, for which, in [1], the inhibition (usually the drop in the measured response relative to a control, in per cent) amounted to 30.4%. The values for the IC50 at Cholinesterase and on Acetylcholinesterase were 9780 nM and 228 nM, respectively. The Activity in data set [2] is 2.49 equiv. In addition, in [3], the Papp at 10 h was 11.3 ×10⁻⁶ cm/s.

Compound `COc1ccc(C(=O)CC(=O)CC2CCN(Cc3ccccc3)CC2)cc1OC` returned an inhibition in [1] of 22%. The IC50 against Cholinesterase is 2330 nM; at Acetylcholinesterase, 149 nM. Moreover, in [2], the Activity is 1.1 equiv. In [3], the Papp at 10 h amounted to 12.1 ×10⁻⁶ cm/s.

`COc1cc(C(=O)C(CCC2CCN(Cc3cccc(C)c3)CC2)C(C)=O)ccc1O` (stereo not given): the results for the IC50 at Cholinesterase and at Acetylcholinesterase were 3360 nM and 961 nM, respectively.

With `COc1cc(/C=C/C(=O)CC(=O)/C=C/c2ccc(O)c(OC)c2)ccc1O`, the Activity in [2] was found to be 2.52 equiv.

Turning to `COc1ccc(C(=O)C(CCC2CCN(Cc3cccc(C)c3)CC2)C(C)=O)cc1O` (stereo not given), the IC50 against Cholinesterase was found to be 16600 nM; on Acetylcholinesterase, 621 nM.

`COc1ccc(C(=O)C(CCC2CCN(Cc3ccccc3)CC2)C(C)=O)cc1` (stereo not given): the values for the IC50 against Cholinesterase and against Acetylcholinesterase were 1640 nM and 517 nM, respectively.

As to `COCOc1ccc(C(=O)C(CCC2CCN(Cc3cccc(C)c3)CC2)C(C)=O)cc1OC` (stereo not given), the IC50 is 3090 nM against Cholinesterase and 340 nM on Acetylcholinesterase.

For the compound `COc1ccc(C(=O)CC(=O)CC2CCN(Cc3ccccc3)CC2)cc1O`, the outcome in data set [4] and in data set [6] was Active. Further, the inhibition in [1] stood at 45.3%. The IC50 at Cholinesterase was 12400 nM; against Acetylcholinesterase, 187 nM. Moreover, the inhibition entry in data set [5] is “Active”. The Activity in [2] was 3.07 equiv. The Papp at 10 h in [3] is 11.8 ×10⁻⁶ cm/s. The result in [7] was inactive.
